# US20240228481A1, “NOVEL SULFONAMIDE SERIES OF QR2 INHIBITORS TO TACKLE OXIDATIVE STRESS AND COGNITIVE DECLINE” (CARMEL HAIFA UNIVERSITY ECONOMIC CORPORATION LTD., priority 2021, published 2024)
# Counter-ions that a name gives are not always drawn.
# Key:
# [1] = Solubility in water; format: physicochemical; conditions: HCl salt
# Source text: In order to enable water-solubility so that an inhibitor could be easily applied to crystalized QR2, and to enable oral administration of the inhibitor and eliminate undesirable formulations, HCl was conjugated to YB-537 (see step 6 in methods section ‘Synthesis of Novel QR2 Inhibitors’ and Table 3). […] Using the water-soluble YB-537 to determine ligand-target interactions, purified human QR2 was co-crystalized in the presence of the inhibitor (FIG. 3A). […] YB-537 is bound to each of the monomers, and interacts with amino acids from both monomers, as well as with FAD. The plane of YB-537 stacks up parallel to the isoalloxazine ring of the FAD and the average distance between the planes of the two rings is 3.5 Å. Each FAD moiety forms 17 contacts within 3.5 Å to atoms from YB-537 and 48 contacts to 17 amino acids from one monomer, namely—H12, S17, F18, N19, S21, P103, L104, Y105, W106, F107, T148, T149, G150, G151, Y156, E194, and R201. YB-537 binds to the catalytic site through a series of hydrophobic and hydrogen bonds with both FAD and amino acids from both QR2 monomers, in a manner unique to it (FIG. 3B). Specifically, YB-537 forms 6 contacts to G150, G151, M155 and a hydrogen bond with N162 from one monomer (A) and 8 contacts to F127, 1129, F132, and F179 from the other monomer (B).
# [2] = test system: 5×FAD mice; assay: Immunohistochemistry of CA1 in 5×FAD mice (4-HNE, amyloid β, p-Tau, Iba1); format: in vivo, mouse; conditions: 1 month drinking
# Experimental: A week after the completion of all behavioral experiments, 5×FAD mice were anesthetized with isoflurane, and once fully anesthetized, were transcardially perfused with 4% paraformaldehyde (PFA), dilutes in […] phosphate buffered saline (PBS, Sigma-Aldrich). Brains were then briefly removed and placed in chilled, 4% PFA for 48 h, followed by immersion in 30% sucrose in 0.1 M PBS for a further 48 h. Brains were then stored at −80° C., until they were sliced into 40 μm coronal sections using a Leica CM 1950 cryostat. Slices were then washed ×3 in PBS and blocked for 1 h at RT using 10% normal donkey serum (DNS) and 0.2% triton (Sigma-Aldrich) in PBS. Antibodies, including 4-HNE (1:500, AbCam, ab48506), Iba1 (1:2,000, AbCam, ab5076), phospho-tau (1:1,000, Thermo, MN1020) and amyloid R (1:1,000, AbCam, ab201060) diluted in PBS with 10% DNS were incubated at 4° C. overnight. The next day, the slices were washed ×3 times in PBS, and secondary antibodies including donkey anti goat Alexa Fluor 568 (AbCam, ab175704), donkey anti-mouse Cy 5 (Jackson Immuno Research, 715-175-151) and donkey anti-rabbit DyLight 488 (AbCam, ab98488) all diluted 1:500 in PBS with 1% BSA, were applied to the slices at RT for 2 h. Following the incubation, the slices were washed ×3 times in PBS, mounted onto glass slides, were uniformly covered in DAPI containing Vectashield (H-1200) and coverslips were added. Images were then taken using a confocal microscope (Olympus IX83), with identical acquisition parameters across every sample per antibody. Three slices were used per mouse per antibody, with images taken of dorsal CA1 (Bregma: −1.58 mm to −2.30 mm; with each antibody having a slice from anterior, medial and posterior regions of this range) using a ×20 objective, acquiring two 800×800 pixel images over as many Z levels possible per slice (Z-stack of the whole section). Analysis of the images was done blind, using Imaris (Bitplane) software. Surface reconstruction module was used to extract the data as volumes and signal intensities. Marker volume or intensity were normalized to the corresponding brain volume. This was done in order to normalize the marker volumes to variations in Z-stack volumes and/or changes to shape and size that needed to be performed during analysis due to debris, vasculature, corpus callosum elimination, or any other obstructions or changes in shape. The normalized value was averaged for each triplicate.
# Following the completion of behavioral experiments, the inventors wished to assess brain pathologies associated with AD present in the 5×FAD mice used. Therefore, 5 days following the completion of the last behavioral experiment, and 1 month following the start of YB-537 consumption, all the mice were sacrificed and coronal sections of their fixed brains were made and used for immunohistochemistry. Since the CA1 region of the hippocampus is affected early on in the pathogenesis of AD, and this brain region is involved in the behavioral paradigms used here, the inventors acquired images of CA1. This was done with an Olympus IX83 confocal microscope using the same settings, antibodies and exposures (all slices and samples were prepared by the same experimenter and all images taken by the same experimenter) in all mice and a separate blind experimenter, unaware of the experimental conditions or details, measured and analyzed the signal detected using Imaris (Bitplane) software (see methods). For each mouse, three coronal sections were used per antibody. In each section, the same region of CA1 was acquired, using the same image frame size and resolution, at all possible depths of the section (Z-stack of the whole section), to allow measurement of the fluorescent antibody marker volume, which was normalized to the brain volume from which it was taken. First, the inventors measured oxidative stress, as indicated by lipid peroxidation product, 4-Hydroxynonenal (4-HNE, antibody: AbCam, ab48506). […]
# [3] = in vitro; conditions: human
# Experimental: THLE-2 (CRL-2706™) were grown in the BEGM Bullet Kit (CC-3170) from Lonza. Besides the additives contained in the kit, the medium was further supplemented with 5 ng/mL EGF (Sigma), 70 ng/mL phosphoethanolamine (Sigma) and 10% FBS (Biological Industries). The plates for the THLE-2 needed to be pre-coated with a mixture of 0.01 mg/mL fibronectin, 0.05 mg/mL of PureCol™ EZ Gel Solution (Sigma) and 0.01 mg/mL of BSA dissolved in BEBM medium (Lonza). The coating medium was aspirated before seeding.
# THLE-2 cells were exposed to the compounds in a 9-point, 2-fold dilution dose response series with a 100 μM as upper limit, for 72 h. Following the 72 h of exposure to the test compounds, cell viability was determined by measuring the concentration of cellular ATP (CellTiter Glo, Promega). The luminescence signal was measured on a Pherastar FS multi-mode plate reader (BMG Labtech). Each data point was tested in a triplicate.
# First, toxicity was assessed in an ATP depletion assay, using THLE-2 cells following a 72 h exposure to a dose response of each of the tested compounds.
# [4] = test system: 5×FAD mice; assay: Delay fear conditioning in 5×FAD mice
# Experimental: Mice are transported to the conditioning room, which is lit by red light only, and kept there for 2 min. They were then placed inside a Habitest Operant Cage, within a Habitest Isolation Cubicle (Coulbourn), on a modular shock floor made of 16 metal grids, connected to Precision Animal Shockers (Coulbourn) with illumination inside the cage coming from a 20 W bulb. The mice were given 2 min to explore, during which baseline freezing was measured. Then, a 20 s, 4 kHz, 80 dB tone was given, co-terminating with the start of a 2 s, 0.5 mA foot-shock, which was repeated a further two times, each having 1 min interval. Following the third, and last of these bouts, 1 min was given prior to the animals being removed from the chambers. The next day, the animals were returned to the room under the same conditions, and were placed back into the chambers, and freezing to the context was measured over the course of 5 min. The next day, the mice were once again returned to the conditioning room, except the room was lit with white light, while the chambers were darkened, the chamber floor was covered with a flat, smooth plastic cover, one of the walls was fitted with a paper sticker and the chamber was scented with diluted (10%) window cleaner (Sano). In this unfamiliar context, the protocol from the first day was repeated, except without the foot-shocks. Freezing for the cue was recorded during the tone. All measurements were taken with a Sentec stc-tb33usb-at camera, and analysis was performed with Freeze Frame software (Actimetrics).
structure (smiles),measurement,setting,value
"Cc1ccc(-c2cn3cccc(C)c3n2)cc1S(=O)(=O)N1CCNCC1 [YB-537, 8-methyl-2-(4-methyl-3-(piperazin-1-ylsulfonyl)phenyl)imidazo[1,2-a]pyridine hydrochloride]",solubility in water,[1],complete solution
same,"4-HNE volume normalized to μm^3 of brain, CA1",[2]; 5×FAD females,0.053±0.005
same,"4-HNE volume normalized to μm^3 of brain, CA1",[2]; 5×FAD males,0.053±0.005
same,"Amyloid β volume normalized to μm^3 of brain, CA1",[2]; 5×FAD males,0.038±0.004
same,"Volume of Iba1 normalized to μm^3 of brain, CA1",[2]; 5×FAD males,0.038±0.003
same,"Volume of p-Tau normalized to μm^3 of brain, CA1",[2]; 5×FAD males,0.064±0.006
same,"sum of the intensity of Iba1 positive signal normalized to μm^3 of brain, CA1",[2]; 5×FAD males,74.09±6.198
same,"Volume of Iba1 normalized to μm^3 of brain, CA1",[2]; 5×FAD total population,0.032±0.002
same,"sum of the intensity of Iba1 positive signal normalized to μm^3 of brain, CA1",[2]; 5×FAD total population,63.57±5.251
same,IC50 at 72 h,[3],> 99 µM
same,freezing in response to the conditioned cue,[4]; 5×FAD both sexes,16.47±1.689%
same,freezing in response to the conditioned cue,[4]; 5×FAD females,12.66±1.739%
same,baseline freezing in conditioning chambers,[4]; 5×FAD males,0.642±0.408%
same,freezing in response to the conditioned context,[4]; 5×FAD males,39.51±2.666%
same,freezing in response to the conditioned cue,[4]; 5×FAD males,19.43±2.289%
